Laboratory results published in ChEMBL document CHEMBL1201862, “PubChem BioAssay data set” (2004).
Activity calls are given as the source filed them.

What was measured:
Format in all cases: functional
[1] = biological target: T1, Sentrin-specific protease 6 (Homo sapiens, UniProt Q9GZR1);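 note: Luminescence-based dose-response confirmatory assay of SENP6 inhibition, following up an ultra-high-throughput screen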
T1 sequence (Q9GZR1 whole entry): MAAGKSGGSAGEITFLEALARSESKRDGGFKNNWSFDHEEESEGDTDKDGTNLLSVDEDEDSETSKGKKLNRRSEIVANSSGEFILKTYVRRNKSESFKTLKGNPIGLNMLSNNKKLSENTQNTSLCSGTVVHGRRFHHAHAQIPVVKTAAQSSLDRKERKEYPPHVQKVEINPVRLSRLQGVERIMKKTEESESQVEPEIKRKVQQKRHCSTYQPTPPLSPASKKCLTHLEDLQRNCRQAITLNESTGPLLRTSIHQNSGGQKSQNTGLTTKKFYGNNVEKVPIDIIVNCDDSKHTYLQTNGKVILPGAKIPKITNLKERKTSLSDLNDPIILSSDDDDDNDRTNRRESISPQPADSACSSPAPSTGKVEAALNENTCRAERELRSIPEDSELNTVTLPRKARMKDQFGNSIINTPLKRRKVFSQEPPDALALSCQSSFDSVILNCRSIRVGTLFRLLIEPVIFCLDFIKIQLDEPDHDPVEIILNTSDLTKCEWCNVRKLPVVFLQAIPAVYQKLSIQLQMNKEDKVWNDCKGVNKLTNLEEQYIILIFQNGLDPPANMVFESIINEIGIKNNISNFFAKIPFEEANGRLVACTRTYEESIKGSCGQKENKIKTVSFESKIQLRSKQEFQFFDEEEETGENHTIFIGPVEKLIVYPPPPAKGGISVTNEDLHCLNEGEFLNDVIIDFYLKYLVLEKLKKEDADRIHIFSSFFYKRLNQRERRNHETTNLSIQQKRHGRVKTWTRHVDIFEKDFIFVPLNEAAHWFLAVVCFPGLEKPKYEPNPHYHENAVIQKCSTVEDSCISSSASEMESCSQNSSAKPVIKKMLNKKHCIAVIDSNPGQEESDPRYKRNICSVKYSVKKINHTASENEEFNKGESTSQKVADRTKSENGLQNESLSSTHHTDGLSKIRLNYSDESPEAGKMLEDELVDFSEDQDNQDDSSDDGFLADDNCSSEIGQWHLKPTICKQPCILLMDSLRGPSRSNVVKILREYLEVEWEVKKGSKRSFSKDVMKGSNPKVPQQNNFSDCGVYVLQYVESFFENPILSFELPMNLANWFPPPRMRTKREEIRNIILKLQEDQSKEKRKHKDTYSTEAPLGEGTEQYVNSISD

[2] = biological target: Dual specificity mitogen-activated protein kinase kinase 2 (Homo sapiens, UniProt P36507); experiment: Navigating the Kinome. Panel member name: MAP2K2
Dual specificity mitogen-activated protein kinase kinase 2, sequence (P36507 whole entry): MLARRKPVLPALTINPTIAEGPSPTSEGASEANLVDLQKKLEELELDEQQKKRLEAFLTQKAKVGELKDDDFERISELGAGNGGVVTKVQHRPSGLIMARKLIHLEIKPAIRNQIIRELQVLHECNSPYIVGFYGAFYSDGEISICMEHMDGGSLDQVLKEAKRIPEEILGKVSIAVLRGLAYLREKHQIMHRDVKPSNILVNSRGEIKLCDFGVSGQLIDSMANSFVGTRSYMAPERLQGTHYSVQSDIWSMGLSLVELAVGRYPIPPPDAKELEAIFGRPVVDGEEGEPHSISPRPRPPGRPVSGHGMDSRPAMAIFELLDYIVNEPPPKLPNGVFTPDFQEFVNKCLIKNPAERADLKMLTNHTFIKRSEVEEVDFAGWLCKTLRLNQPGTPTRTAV

[3] = biological target: Platelet-derived growth factor receptor alpha (Homo sapiens, UniProt P16234); experiment: Navigating the Kinome. Panel member name: PDGFRA
Platelet-derived growth factor receptor alpha, sequence (P16234 whole entry): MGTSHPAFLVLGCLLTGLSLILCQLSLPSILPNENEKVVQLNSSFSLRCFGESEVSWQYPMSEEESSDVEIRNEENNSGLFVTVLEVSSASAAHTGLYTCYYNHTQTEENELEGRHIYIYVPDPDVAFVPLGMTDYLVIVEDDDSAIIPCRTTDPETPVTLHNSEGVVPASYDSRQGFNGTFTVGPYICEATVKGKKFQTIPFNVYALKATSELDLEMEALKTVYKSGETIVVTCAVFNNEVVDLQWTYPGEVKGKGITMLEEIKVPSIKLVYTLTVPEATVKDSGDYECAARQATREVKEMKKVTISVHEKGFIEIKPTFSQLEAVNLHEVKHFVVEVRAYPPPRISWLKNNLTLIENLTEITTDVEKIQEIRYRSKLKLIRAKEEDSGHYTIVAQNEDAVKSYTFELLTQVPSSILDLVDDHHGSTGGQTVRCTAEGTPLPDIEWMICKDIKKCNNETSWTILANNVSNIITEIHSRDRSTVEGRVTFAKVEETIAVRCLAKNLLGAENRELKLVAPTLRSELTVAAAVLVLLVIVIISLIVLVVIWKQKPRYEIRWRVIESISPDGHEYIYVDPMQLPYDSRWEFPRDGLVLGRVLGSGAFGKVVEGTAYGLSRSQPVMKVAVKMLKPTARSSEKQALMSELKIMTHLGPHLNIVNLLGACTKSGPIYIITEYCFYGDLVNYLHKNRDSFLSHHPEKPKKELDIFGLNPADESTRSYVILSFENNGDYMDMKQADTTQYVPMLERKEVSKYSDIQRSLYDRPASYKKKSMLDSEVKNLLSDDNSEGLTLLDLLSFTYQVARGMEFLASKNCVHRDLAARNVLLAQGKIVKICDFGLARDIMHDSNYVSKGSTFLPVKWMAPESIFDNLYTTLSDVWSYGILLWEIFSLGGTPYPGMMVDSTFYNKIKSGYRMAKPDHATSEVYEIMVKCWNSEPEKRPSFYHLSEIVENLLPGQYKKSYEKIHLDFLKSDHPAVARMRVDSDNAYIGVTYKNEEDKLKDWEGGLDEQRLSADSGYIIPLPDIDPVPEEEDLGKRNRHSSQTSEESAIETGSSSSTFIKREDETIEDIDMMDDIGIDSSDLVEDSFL

[4] = biological target: Cyclin-dependent kinase 8 (Homo sapiens, UniProt P49336); experiment: Navigating the Kinome. Panel member name: CDK8
Cyclin-dependent kinase 8, sequence (P49336 whole entry): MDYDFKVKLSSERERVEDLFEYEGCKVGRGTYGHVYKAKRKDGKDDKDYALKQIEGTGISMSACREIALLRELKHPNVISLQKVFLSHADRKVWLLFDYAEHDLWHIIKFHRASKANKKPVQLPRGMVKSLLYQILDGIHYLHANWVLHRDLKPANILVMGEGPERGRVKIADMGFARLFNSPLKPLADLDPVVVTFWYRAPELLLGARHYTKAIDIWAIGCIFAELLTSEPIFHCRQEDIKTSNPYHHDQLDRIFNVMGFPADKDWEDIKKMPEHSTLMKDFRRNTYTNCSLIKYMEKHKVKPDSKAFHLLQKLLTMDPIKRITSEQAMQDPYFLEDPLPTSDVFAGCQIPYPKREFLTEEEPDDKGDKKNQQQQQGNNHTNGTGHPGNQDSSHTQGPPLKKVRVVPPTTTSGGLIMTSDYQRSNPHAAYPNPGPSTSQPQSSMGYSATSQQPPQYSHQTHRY

[5] = biological target: Macrophage-stimulating protein receptor (Homo sapiens, UniProt Q04912); experiment: Navigating the Kinome. Panel member name: MST1R
Macrophage-stimulating protein receptor, sequence (Q04912 25-304 limits assumed): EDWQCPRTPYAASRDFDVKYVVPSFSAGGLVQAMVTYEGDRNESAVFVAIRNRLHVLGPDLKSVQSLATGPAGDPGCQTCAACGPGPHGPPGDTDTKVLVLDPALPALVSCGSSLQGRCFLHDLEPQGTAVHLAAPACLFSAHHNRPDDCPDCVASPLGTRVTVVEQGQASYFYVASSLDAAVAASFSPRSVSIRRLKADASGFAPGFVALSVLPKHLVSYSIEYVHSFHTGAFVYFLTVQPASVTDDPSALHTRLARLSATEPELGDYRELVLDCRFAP
Macrophage-stimulating protein receptor, sequence (Q04912 310-1400 limits assumed): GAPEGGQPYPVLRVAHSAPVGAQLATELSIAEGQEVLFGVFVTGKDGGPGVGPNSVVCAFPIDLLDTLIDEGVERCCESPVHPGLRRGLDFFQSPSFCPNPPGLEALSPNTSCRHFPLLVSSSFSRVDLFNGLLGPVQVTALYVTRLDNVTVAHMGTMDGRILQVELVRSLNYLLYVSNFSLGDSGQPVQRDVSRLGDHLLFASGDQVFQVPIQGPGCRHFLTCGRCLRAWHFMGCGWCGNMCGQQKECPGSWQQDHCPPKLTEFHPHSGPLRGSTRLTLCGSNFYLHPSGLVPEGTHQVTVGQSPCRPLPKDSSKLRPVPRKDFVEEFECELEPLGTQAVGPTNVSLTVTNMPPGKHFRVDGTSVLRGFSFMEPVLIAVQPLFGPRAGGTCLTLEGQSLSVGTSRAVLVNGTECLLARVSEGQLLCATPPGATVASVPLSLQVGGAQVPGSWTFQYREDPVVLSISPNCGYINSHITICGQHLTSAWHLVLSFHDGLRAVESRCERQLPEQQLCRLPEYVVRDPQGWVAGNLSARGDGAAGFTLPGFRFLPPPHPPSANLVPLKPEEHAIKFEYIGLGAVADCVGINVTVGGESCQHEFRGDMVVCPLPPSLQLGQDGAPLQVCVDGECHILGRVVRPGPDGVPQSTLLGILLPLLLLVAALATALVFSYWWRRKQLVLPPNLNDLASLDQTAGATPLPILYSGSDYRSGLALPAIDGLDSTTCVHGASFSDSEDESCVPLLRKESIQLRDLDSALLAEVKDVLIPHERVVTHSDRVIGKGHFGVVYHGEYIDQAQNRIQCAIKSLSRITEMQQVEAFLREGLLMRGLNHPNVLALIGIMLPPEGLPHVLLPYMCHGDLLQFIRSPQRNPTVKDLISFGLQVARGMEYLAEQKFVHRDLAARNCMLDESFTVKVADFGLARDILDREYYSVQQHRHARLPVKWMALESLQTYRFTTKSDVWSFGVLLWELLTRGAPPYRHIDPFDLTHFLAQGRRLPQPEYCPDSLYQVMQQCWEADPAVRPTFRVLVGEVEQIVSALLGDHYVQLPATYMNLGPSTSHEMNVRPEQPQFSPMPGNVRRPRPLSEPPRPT

[6] = biological target: Macrophage colony-stimulating factor 1 receptor (Homo sapiens, UniProt P07333);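 note: value comes from the Navigating the Kinome screening panel, CSF1R member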
Macrophage colony-stimulating factor 1 receptor, sequence (P07333 whole entry): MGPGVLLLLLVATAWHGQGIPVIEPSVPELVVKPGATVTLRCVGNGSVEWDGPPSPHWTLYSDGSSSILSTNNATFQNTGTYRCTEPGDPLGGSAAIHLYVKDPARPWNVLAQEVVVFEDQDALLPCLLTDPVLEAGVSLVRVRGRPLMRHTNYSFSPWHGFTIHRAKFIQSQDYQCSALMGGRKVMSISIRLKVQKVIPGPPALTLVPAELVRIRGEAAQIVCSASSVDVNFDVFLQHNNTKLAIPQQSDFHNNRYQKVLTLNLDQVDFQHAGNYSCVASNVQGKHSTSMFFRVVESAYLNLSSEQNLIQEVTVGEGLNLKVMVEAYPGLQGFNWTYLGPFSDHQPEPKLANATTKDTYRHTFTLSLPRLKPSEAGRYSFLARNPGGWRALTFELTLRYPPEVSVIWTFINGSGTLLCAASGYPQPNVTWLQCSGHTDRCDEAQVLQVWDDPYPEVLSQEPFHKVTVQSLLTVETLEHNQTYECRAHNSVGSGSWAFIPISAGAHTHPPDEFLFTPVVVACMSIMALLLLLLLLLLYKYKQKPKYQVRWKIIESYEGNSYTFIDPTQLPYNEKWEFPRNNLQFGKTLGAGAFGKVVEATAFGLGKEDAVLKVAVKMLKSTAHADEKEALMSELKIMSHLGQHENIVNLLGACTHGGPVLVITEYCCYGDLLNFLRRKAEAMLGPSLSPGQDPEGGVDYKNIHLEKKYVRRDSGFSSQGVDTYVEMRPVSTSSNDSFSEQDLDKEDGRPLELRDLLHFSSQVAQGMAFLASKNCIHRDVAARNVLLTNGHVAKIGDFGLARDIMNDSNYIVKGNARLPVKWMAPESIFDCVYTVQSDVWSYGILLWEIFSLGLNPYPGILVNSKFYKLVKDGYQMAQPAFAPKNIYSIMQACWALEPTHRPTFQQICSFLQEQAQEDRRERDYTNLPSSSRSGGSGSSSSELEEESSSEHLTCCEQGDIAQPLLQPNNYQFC

[7] = biological target: T2, Receptor-type tyrosine-protein kinase FLT3 (Homo sapiens, UniProt P36888);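 note: FLT3 was tested as one member of a kinome-wide kinase panel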
T2 sequence (P36888 whole entry): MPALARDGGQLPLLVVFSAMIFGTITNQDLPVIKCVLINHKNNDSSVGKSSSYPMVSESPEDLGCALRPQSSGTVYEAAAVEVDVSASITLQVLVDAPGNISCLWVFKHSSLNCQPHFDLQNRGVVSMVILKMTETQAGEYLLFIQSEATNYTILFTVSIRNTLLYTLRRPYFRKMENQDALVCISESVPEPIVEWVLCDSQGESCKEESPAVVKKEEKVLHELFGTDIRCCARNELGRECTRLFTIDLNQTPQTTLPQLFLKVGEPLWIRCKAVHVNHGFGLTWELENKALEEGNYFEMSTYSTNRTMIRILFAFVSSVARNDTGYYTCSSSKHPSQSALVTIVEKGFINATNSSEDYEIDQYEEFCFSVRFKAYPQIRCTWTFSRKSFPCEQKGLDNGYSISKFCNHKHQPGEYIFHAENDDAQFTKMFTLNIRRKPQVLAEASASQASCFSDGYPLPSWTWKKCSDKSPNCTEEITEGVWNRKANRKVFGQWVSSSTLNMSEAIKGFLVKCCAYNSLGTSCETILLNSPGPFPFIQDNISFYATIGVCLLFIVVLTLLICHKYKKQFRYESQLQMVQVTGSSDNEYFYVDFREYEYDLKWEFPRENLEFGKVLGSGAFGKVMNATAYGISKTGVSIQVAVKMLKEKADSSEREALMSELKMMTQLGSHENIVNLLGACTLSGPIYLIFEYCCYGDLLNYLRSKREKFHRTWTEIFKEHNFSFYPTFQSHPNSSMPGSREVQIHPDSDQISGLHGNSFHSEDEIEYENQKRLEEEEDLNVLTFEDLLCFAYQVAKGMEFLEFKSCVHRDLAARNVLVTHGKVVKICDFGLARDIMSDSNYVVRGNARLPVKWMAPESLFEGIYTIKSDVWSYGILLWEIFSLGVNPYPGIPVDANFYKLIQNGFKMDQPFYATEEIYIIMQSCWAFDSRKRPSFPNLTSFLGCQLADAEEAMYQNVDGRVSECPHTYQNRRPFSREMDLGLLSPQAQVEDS

[8] = biological target: Dual specificity tyrosine-phosphorylation-regulated kinase 1B (Homo sapiens, UniProt Q9Y463); experiment: Navigating the Kinome. Panel member name: DYRK1B
Dual specificity tyrosine-phosphorylation-regulated kinase 1B, sequence (Q9Y463 whole entry): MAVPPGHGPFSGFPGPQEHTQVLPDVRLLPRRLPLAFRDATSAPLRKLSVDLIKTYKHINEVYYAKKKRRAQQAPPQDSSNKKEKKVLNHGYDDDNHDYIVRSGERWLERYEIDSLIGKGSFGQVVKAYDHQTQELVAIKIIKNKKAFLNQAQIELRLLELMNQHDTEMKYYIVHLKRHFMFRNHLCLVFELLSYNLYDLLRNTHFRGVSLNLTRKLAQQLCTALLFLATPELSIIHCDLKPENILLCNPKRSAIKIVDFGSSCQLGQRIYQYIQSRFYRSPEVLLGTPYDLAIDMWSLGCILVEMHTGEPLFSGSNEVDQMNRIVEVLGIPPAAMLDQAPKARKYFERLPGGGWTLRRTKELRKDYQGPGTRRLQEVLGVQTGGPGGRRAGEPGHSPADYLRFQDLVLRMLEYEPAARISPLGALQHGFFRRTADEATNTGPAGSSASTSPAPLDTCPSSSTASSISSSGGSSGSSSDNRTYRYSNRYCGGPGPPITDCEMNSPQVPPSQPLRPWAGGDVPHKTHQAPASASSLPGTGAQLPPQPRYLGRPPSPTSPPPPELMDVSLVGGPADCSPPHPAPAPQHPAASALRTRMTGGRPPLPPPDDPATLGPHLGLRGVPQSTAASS

Row | Ki [2] | Ki [3] | Ki [4] | Ki [5] | Ki [6] | Ki [7] | Ki [8] | SMILES | IC50 [1]
1 |  |  |  |  |  |  |  | O=C(NC1=C(Nc2ccc(F)cc2)C(=O)c2ccccc2C1=O)c1ccc(Cl)cc1 | 8.56 µM (active)
2 |  |  |  |  |  |  |  | Oc1nc(Nc2ccc(F)cc2)cc2ccccc12 | 2.99 µM (active)
3 | 0.316 µM (active) | 0.126 µM (active) | 1.58 µM (active) | 0.00158 µM (active) | 0.631 µM (active) | 0.0251 µM (active) | 0.001 µM (active) | NC(COc1cncc(-c2ccc3c(c2)C(=Cc2ccc[nH]2)C(=O)N3)c1)Cc1ccccc1 (centres undefined) | 
4 | > 3.98 µM (inactive) | 0.501 µM (active) | > 3.98 µM (inactive) | 0.0631 µM (active) | 1.26 µM (active) | > 3.16 µM (inactive) | 0.398 µM (active) | O=C1Nc2cc(-c3ccc(O)cc3)ccc2C1=Cc1ccc[nH]1 | 
5 |  |  |  |  |  |  |  | CN(C)c1cc(N/N=C\c2ccccc2)nc(N(C)C)n1 | 6 µM (active)
6 | 50.1 µM (active) | 39.8 µM (active) | 25.1 µM (active) | 79.4 µM (active) | 63.1 µM (active) | 79.4 µM (active) | 50.1 µM (active) | O=C1Cc2cc(-c3ccccc3)cnc2N1 | 
